Source: patent US20170022201A1, “MACROCYLIC PYRIDINE DERIVATIVES” (Janssen Pharmaceutica NV, priority 2014, published 2017)

Legend:
[1] = target: PIK3C3 lipid kinase (Homo sapiens, UniProt Q8NEB9); assay: Biochemical Vps34 lipid kinase assay (ADP-Glo); details: 20 μM ATP; for remaining activity at 1 µM: 1 h, single dose 1 μM, residual activity compared to control (DMSO), read-out: VPS34_1microM_%ofcntrl; for IC50: serial dilution 10 μM to 0.3 nM, pIC50 = -log IC50 (M)
Procedure, shortened: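 ADP-Glo luminescence measured PIK3C3 (7.6 nM) activity with 50 μM substrate, 20 μM ATP (apparent Km), 3 mM MnCl2, HEPES pH 7.5, 60 min at 30° C. Compounds tested at 1 μM single dose (residual activity vs DMSO) or half-log series 10 μM–0.3 nM giving pIC50.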

[2] = target: T1, EF2K (Homo sapiens, UniProt O00418); assay: Biochemical EF2K lysate-based kinase assay (AlphaLISA p-eEF2 Thr56); details: LN-229 cell lysates, 10 mM ATP, pH 6.6; pIC50 = -log IC50 (M); read-out: eEF2K_C_alphalisa pIC50 (converted)
T1 construct: host or cells: LN-229 glioblastoma cell lysate
T1 sequence (O00418 1-725): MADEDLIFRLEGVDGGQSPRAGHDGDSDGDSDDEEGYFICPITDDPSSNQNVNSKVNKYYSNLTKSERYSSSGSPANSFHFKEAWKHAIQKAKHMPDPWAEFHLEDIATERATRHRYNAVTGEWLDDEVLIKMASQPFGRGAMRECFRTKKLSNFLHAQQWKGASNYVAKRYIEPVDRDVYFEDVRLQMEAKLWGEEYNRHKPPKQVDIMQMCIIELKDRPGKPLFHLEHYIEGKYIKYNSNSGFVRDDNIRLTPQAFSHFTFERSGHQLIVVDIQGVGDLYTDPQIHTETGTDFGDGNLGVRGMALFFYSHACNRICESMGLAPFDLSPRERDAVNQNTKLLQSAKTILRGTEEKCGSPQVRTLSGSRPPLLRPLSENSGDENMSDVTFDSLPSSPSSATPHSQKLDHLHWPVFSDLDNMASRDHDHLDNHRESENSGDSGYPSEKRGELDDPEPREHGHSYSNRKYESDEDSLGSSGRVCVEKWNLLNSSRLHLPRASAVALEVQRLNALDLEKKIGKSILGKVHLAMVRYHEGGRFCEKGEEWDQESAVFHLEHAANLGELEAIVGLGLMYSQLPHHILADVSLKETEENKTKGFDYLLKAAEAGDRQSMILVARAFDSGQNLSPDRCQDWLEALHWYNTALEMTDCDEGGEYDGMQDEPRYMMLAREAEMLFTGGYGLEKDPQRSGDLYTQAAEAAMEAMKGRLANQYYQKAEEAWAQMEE
Procedure, shortened: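 LN-229 glioblastoma lysate supplied both EF2K and eEF2 substrate; compound incubated with lysate 15 minutes at room temperature at pH 6.6 with 10 mM Mg2+ and 10 mM ATP, then stopped with excess EDTA. Thr56-phosphorylated eEF2 detected by sandwich AlphaLISA, final read after overnight standing.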

[3] = target: T2, eEF2K (Homo sapiens, UniProt O00418); assay: EF2K cell-based assay (P-EF2 AlphaLISA, 2-deoxyglucose stimulated MCF10A cells); details: 2.5 mM 2-deoxyglucose 4 h, phosphorylation of EF2 at Thr 56, pIC50 = -log IC50 (M), read-out: eEF2K_C_PThr56 pIC50 (converted)
T2 construct: in the immortalized epithelial breast cell lines, MCF10A; host or cells: MCF10A immortalized breast epithelial cells
T2 sequence (O00418 1-725): T1 sequence (O00418 1-725)
Procedure, shortened: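 MCF10A cells pretreated with compound for 1 h, then stimulated with 2.5 mM 2-deoxyglucose for 4 h to deplete ATP and activate AMPK. Phospho-EF2 in lysates measured by AlphaLISA.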

Sequence of PIK3C3 lipid kinase (Q8NEB9 whole entry): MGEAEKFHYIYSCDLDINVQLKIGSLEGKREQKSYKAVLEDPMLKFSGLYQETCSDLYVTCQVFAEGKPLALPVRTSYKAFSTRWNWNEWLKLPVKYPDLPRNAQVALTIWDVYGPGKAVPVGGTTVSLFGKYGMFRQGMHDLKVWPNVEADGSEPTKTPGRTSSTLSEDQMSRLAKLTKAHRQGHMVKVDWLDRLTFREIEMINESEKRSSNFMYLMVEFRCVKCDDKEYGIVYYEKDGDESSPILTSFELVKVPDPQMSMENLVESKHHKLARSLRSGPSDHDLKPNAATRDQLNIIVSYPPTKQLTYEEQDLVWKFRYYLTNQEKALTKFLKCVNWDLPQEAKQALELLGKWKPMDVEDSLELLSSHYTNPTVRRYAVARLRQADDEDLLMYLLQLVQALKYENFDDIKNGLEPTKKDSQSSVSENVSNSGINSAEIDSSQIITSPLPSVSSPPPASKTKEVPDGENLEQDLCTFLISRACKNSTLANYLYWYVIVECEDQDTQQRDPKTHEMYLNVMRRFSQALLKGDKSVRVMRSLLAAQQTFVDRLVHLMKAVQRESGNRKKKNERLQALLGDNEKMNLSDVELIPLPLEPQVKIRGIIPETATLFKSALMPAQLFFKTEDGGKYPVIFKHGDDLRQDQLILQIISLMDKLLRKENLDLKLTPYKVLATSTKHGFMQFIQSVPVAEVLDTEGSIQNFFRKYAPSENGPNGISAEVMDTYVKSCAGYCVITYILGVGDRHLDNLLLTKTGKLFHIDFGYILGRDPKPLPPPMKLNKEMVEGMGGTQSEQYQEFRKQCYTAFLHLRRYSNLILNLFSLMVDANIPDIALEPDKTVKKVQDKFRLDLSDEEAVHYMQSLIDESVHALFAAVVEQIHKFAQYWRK

Q: With CC1CN2CCN1Cc1cccc(c1)Nc1cc(ccn1)-c1ccc(nc1)NCCCNC(=O)C2 (stereo not drawn) [Compound 71] as the compound, how does the remaining activity at 1 µM [1] read?
A: 32.1%

Q: What about the IC50 [2] of the same compound?
A: 3.31e-07 M

Q: And the IC50 [3]?
A: 2.45e-05 M

Q: What about the melting point of the same compound?
A: 162 °C

Q: Which remaining activity at 1 µM [1] does the source give for O=C1CN2CCN(Cc3cccc(c3)Nc3cc(ccn3)-c3cnc(nc3)NCCCN1)C(CO)C2 (single isomer, unassigned) [Compound 7] here?
A: 12.5%

Q: And the IC50 [1]?
A: 1.07e-07 M

Q: What about the IC50 [2] of the same compound?
A: 1.12e-07 M

Q: What about the IC50 [3] of the same compound?
A: 1.62e-05 M

Q: What about the melting point of the same compound?
A: 267.8 to 267.9 °C

Q: With COCCCN1CCCN(C)C(=O)CN2CCN(CC2)Cc2cccc(c2)Nc2cc(ccn2)-c2cnc1nc2 [Compound 14] as the compound, how does the remaining activity at 1 µM [1] read?
A: 50.4%

Q: What about the IC50 [2] of the same compound?
A: > 3.02e-05 M

Q: What about the IC50 [3] of the same compound?
A: > 3.02e-05 M

Q: And the melting point?
A: 240 °C

Q: For O=C1CN2CCN(CC2)Cc2cccc(c2)Nc2cc(ccn2)-c2ccc(nc2)NCCN1 [Compound 70], which remaining activity at 1 µM [1] is on record?
A: 72.6%

Q: And the IC50 [2]?
A: 5.62e-06 M

Q: And the IC50 [3]?
A: > 3.02e-05 M

Q: And the melting point?
A: 252 °C

Q: With O=C1CNCCNc2ccc(cn2)-c2ccnc(c2)Nc2cccc(c2)CN2CCN1CC2 [Compound 144] as the compound, how does the remaining activity at 1 µM [1] read?
A: 53.7%

Q: What about the IC50 [2] of the same compound?
A: ~1.51e-05 M

Q: What about the IC50 [3] of the same compound?
A: > 3.02e-05 M

Q: What about the melting point of the same compound?
A: 143 °C

Q: With O=C1CN2CCC(CC2)Nc2cccc(c2)Nc2cc(ccn2)-c2cnc(nc2)NCCCN1 [Compound 106] as the compound, how does the remaining activity at 1 µM [1] read?
A: 22.4%

Q: And the IC50 [1]?
A: 5.89e-07 M

Q: What about the IC50 [2] of the same compound?
A: 7.59e-07 M

Q: What about the IC50 [3] of the same compound?
A: 2.88e-05 M

Q: And the melting point?
A: 255.3 to 256.8 °C

Q: Which results are given for O=C1NCCCNc2ncc(cn2)-c2ccnc(c2)Nc2cccc(c2)CN2CCN(CC2)C1CO (single isomer, unassigned) [Compound 2]?
A: IC50 [1]: 5.5e-07 M; IC50 [2]: 4.79e-08 M; IC50 [3]: ~2.51e-06 M

Q: What does the source list for O=C1CN2CCN(CC2)Cc2cccc(c2)Nc2cc(ccn2)-c2cnc(nc2)N2CC(O)CC2CCN1 (stereo not drawn) [Compound 54]?
A: IC50 [1]: 9.77e-06 M; IC50 [2]: 1.1e-08 M; IC50 [3]: 7.94e-07 M

Q: Which remaining activity at 1 µM [1] does the source give for CNC(=O)C1CCNC(=O)CN2CCN(CC2)Cc2cccc(c2)Nc2cc(ccn2)-c2cnc(nc2)N1 (stereo not drawn) [Compound 122] here?
A: 39.5%

Q: What about the IC50 [2] of the same compound?
A: 1.91e-05 M

Q: What about the IC50 [3] of the same compound?
A: 1.41e-05 M

Q: What does the source list for CC1(C)c2cccc(c2)Nc2cc(ccn2)-c2cnc(nc2)NCCCNC(=O)CN2CCN1CC2 [Compound 74]?
A: remaining activity at 1 µM [1]: 70.1%; IC50 [2]: 1.2e-07 M; IC50 [3]: 1.51e-06 M

Q: For COCCN1CCN(C)C(=O)CN2CCN(CC2)Cc2cccc(c2)Nc2cc(ccn2)-c2cnc1nc2 [Compound 15], which remaining activity at 1 µM [1] is on record?
A: 67%

Q: And the IC50 [2]?
A: > 3.02e-05 M

Q: And the IC50 [3]?
A: > 3.02e-05 M

Q: And the melting point?
A: 240 °C

Q: Which results are given for CC1c2cccc(c2)Nc2cc(ccn2)-c2cnc(nc2)N2CC(O)CC2CCNC(=O)C2(CC2)N2CCN1CC2 (single isomer, unassigned) [Compound 65]?
A: IC50 [1]: 1.95e-07 M; IC50 [2]: 5.62e-09 M; IC50 [3]: 3.8e-07 M

Q: For C=CCN1CCNC(=O)CN2CCN(CC2)Cc2cccc(c2)Nc2cc(ccn2)-c2cnc(nc2)C1 [Compound 130], which remaining activity at 1 µM [1] is on record?
A: 57%

Q: And the IC50 [2]?
A: 1e-06 M

Q: What about the IC50 [3] of the same compound?
A: 1.58e-06 M

Q: What does the source list for CC1c2cccc(c2)Nc2cc(ccn2)-c2cnc(nc2)NCCCNC(=O)C2(CC2)N2CCN1CC2 (single isomer, unassigned) [Compound 23]?
A: IC50 [1]: 1.74e-06 M; IC50 [2]: 9.55e-08 M; IC50 [3]: ~2.95e-06 M
